Experimental data taken from patent publication US20050020542A1, “Method of modulating sodium ion absorption in epithelial cells” (priority 2001, published 2005).
“Also recorded” adds a separate entry of the source. Where two headings read alike, the source gives them in different places.

Target: T1, epithelial sodium channel (ENaC) (Homo sapiens, UniProt P37088+P51168+P51170)
T1 construct: Nasal Polyps were surgically obtained from a CF patient; endogenous in cells; host or cells: primary cystic fibrosis human nasal epithelial (CFHNE) cells from nasal polyps of a CF patient, grown at air-liquid interface
T1 sequence (P37088 1-669): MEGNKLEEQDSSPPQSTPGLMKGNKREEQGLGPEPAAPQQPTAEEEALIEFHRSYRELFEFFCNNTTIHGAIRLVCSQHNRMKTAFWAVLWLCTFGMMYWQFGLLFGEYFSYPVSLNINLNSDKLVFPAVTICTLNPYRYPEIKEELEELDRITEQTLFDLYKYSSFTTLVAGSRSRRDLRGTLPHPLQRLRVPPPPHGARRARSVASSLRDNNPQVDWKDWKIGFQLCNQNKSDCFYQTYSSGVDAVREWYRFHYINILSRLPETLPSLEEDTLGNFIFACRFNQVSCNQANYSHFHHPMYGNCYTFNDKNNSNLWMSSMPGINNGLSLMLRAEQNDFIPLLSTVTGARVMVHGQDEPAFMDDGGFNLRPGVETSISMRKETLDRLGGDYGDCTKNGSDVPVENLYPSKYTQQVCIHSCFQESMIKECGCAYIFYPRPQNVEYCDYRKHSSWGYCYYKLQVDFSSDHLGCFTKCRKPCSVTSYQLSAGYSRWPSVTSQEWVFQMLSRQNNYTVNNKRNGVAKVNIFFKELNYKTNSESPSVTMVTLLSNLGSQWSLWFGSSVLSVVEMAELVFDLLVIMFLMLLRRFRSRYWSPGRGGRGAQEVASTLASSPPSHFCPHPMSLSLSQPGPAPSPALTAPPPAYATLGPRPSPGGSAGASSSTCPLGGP
T1 sequence (P51168 1-640): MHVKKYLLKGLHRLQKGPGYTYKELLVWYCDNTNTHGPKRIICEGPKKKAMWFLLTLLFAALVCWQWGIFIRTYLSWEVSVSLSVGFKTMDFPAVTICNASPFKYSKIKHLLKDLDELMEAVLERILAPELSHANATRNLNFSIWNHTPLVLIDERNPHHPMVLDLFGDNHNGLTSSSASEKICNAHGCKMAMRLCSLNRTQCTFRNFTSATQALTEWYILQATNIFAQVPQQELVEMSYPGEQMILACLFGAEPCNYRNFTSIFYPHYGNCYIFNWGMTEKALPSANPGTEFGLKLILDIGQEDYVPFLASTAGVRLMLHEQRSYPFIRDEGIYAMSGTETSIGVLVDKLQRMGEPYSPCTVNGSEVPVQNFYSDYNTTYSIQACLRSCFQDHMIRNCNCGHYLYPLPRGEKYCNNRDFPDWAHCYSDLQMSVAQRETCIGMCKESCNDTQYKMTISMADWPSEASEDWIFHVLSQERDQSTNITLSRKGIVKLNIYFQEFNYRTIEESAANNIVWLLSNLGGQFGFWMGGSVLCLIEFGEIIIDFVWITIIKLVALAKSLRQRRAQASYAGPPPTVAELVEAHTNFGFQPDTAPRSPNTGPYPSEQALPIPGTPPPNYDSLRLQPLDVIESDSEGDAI
T1 sequence (P51170 1-649): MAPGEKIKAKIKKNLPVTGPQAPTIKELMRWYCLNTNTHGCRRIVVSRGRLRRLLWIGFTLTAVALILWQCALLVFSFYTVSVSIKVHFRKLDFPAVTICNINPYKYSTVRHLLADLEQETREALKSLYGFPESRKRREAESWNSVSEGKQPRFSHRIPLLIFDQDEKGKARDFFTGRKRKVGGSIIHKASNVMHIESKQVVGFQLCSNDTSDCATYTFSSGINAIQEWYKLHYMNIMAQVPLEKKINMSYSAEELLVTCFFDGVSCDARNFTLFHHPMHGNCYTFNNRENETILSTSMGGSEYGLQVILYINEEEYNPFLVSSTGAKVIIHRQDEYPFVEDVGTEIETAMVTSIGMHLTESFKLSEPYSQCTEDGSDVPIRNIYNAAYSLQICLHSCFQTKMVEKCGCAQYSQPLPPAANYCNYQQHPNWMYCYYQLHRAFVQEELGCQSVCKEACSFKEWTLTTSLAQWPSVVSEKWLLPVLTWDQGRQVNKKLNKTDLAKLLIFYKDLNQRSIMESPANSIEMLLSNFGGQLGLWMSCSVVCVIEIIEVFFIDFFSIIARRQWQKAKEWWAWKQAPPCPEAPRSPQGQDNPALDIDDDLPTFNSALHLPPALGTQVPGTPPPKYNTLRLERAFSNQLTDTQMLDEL
Assay: Cystic fibrosis human nasal epithelial (CFHNE) cell Ussing chamber assay, short-circuit current (Isc)
Format: cell-based
Protocol: Sodium uptake inhibiting and enhancing inositol polyphosphate compounds are determined by the cystic fibrosis human nasal epithelial (CFHNE) cell assay, as described in detail in Examples 1 and 2, i.e., by mounting monolayers of human CF nasal epithelial cells in Ussing chambers, and then monitoring short-circuit current (Isc) and resistance after contact with a test inositol polyphosphate compound.
Elevated basal Isc measured in monolayer cultures in Ussing Chambers is a prominent characteristic of cultures of CF human nasal airway epithelia that distinguishes it from normal tissue. Although basal Isc is largely driven by sodium channel activity (ENaC) it has been closely associated with both CFTR and Ca^2+ activated Cl^− channels. (Devor and Pilewski, 1999; Inglis et al., 1999; Mall et al., 1999; Ramminger et al., 1999; Wang and Chan, 2000).
CF Human Nasal Epithelial (CFHNE) Cell Isolation and Proliferation: Nasal Polyps were surgically obtained from a CF patient at Children's Hospital (Seattle, Wash.), transported, on ice in a sterile container containing a 1:1 mixture of Dulbecco's modification of minimum essential medium Eagle and Ham's F-12 nutrient medium (DMEM/F-12)(Irvine Scientific, Santa Ana, Calif.) supplemented with 100 U/ml penicillin, 0.1 mg/ml streptomycin, 10 mM HEPES, and 2 mM L-glutamine. The tissue samples were aseptically removed from the transport medium and washed (repeated 5×) by suspending in 40 ml of Joklik's modification of minimum essential medium Eagle (JMEM) at 4° C., and centrifuging at 500 RPM. The supernatant was aspirated and discarded. The tissue was then transferred to JMEM containing 200 U/ml penicillin, 0.2 mg/ml streptomycin, 0.1 mg/ml gentamycin sulfate (Clonetics, San Diego, Calif.), and 0.1 μg/ml amphotericin-B (Clonetics), and 0.1% Protease (Sigma), washed an additional 2×, suspended in 15 ml in a 10 cm tissue culture dish, and incubated at 4° C. for 24 hours. The tissue samples were then gently triturated, the connective tissue aseptically removed, and the remaining cell suspension centrifuged at 1000 RPM for 5 min. The supernatant was aspirated and the pellet was resuspended in 10 ml JMEM with 0.025% trypsin-EDTA and allowed to incubate for 5 min. After 5 min., 10% Fetal Bovine Serum (FBS) was added to deactivate the trypsin, and the cell suspension was centrifuged at 1000 RPM. The supernatant was aspirated and the cell pellet was resuspended in a proliferation media consisting of Keratinocyte-Serurm Free Medium (KSFM)(Gibco-BRL, Grand Island, N.Y.) containing 5 ng/ml EGF (Gibco), 50 μg/ml BPE (Gibco), 100 U/ml penicillin, 0.1 mg/ml streptomycin, and 2 mM L-glutamine. The cell suspension was transferred to 2, 10 cm tissue culture dishes coated with 1 μg/cm^2 Vitrogen (Becton-Dickinson, Bedford, Mass.), incubated at 37° C. in a humidified atmosphere of 5% CO2 and 95% air. The cells were allowed to grow for 6 days (70-80% confluence) with the media being replaced with fresh media every other day. The cells were then trypsinized using 0.025% trypsin-EDTA for 5 min. The cell suspension was collected, the trypsin deactivated with 10% FBS, and centrifuged at 1000 rpm for 5 min. The cells were then counted using a hemocytometer. There was a typical yield of 3×10^6 cells per dish. The supernatant was aspirated and the cells were resuspended in KSFM and plated on 1 μg/cm^2 Vitrogen at a density of 5×10^3 cells/cm^2.
CFHNE Cell Ussing Chamber Preparation: The CFHNE cells were prepared for Ussing Chamber studies using Snapwell permeable supports (0.4 μm pore size) (Corning Costar, Cambridge, Mass.) coated with 1 μg/cm^2 Vitrogen. Cells were plated at 10^5 cells/cm^2 in KSFM. […]

- acute effect on Isc (2.5 μM, acute): acute inhibitory effect on Isc
- persistence of acute Isc effect after 24 hrs (2.5 μM, single addition, after 24 hrs): dissipated
- inhibition of Isc 48 hours after exposure (reversibility) (5 μM for 2 hours, tested 48 hours later): negligible inhibition of Isc
- decrease in potency after 24 hr preincubation versus acute addition (24 hr preincubation EC50 vs acute EC50): 50-80%
- inhibition of spontaneous Isc in Cl- free buffer (Cl- free buffer, FIG. 1A): not reduced
- EC50 (acute addition, data not shown, read-out: EC50 on Isc following acute addition of compound): 1 to 2 µM
- EC50 (applied apically 2 hrs, washed, tested 24 hrs later, CFHNE monolayers, read-out: EC50 of prolonged effect on basal amiloride-inhibitable Isc): 5 to 10 µM
SMILES: CCCCCCCCOC1C(OC(=O)CCC)C(OP(=O)(OCOC(=O)CC)OCOC(=O)CC)C(OP(=O)(OCOC(=O)CC)OCOC(=O)CC)C(OP(=O)(OCOC(=O)CC)OCOC(=O)CC)C1OP(=O)(OCOC(=O)CC)OCOC(=O)CC (stereo not drawn) [INO-E2, 2-O-butyryl-1-O-octyl-myo-inositol 3,4,5,6-tetrakisphosphate octakis (propionoxymethyl) ester]
- effect of repeated exposure on basal Isc (1-2.5 μM repeatedly over 96 hours (every 24 hrs for 4 days), FIG. 3): corrective changes in basal Isc; also recorded: cumulative beneficial effect; also recorded: reverses the pathologically elevated basal Isc
- acute effect on spontaneous amiloride-inhibitable Isc (acute addition, reduced chloride and chloride free buffers, FIG. 1A): inhibits spontaneous amiloride-inhibitable Isc in a dose-dependent fashion
